For the experiment, the target named is T1, human mAChR M4 (Homo sapiens, UniProt P08173).
T1 construct: expressed in transfected cells; host or cells: CHO-K1 (American Type Culture Collection), stably expressing hM4 and Gqi5
T1 sequence (P08173 1-479): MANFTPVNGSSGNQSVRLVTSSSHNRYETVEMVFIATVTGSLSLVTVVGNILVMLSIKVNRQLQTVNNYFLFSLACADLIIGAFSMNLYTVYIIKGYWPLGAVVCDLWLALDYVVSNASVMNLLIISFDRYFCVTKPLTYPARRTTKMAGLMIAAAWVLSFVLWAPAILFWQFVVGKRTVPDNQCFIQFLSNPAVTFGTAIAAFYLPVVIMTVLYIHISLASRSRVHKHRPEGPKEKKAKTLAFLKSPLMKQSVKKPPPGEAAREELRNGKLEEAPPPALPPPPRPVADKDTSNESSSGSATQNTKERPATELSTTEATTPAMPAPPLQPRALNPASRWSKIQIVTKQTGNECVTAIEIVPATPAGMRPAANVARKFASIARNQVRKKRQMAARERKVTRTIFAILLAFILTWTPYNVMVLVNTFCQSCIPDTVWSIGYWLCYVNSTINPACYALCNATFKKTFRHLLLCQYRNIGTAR
The experiment is described as follows: mAChR M4 cell-based functional assay: calcium mobilization (Fluo-4, FDSS), potentiation of EC20 acetylcholine response in hM4-Gqi5 CHO-K1 cells. The conditions noted are these: human M4; for Emax at 30 µM: CHO-K1, % ACh maximum at 30 μM; for EC50: potentiation of EC20 acetylcholine response, calcium mobilization. The procedure, abridged:
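CHO-K1 cells stably co-expressing human M4 and chimeric Gqi5, loaded with Fluo-4 AM (50 min, 37 °C). Compounds in 11-point 1:3 series added first; EC20 acetylcholine added at 144 s and again at 230 s. Calcium read on FDSS at 1 Hz; EC50 and Emax from four-parameter logistic fit of potentiated EC20 response.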
On the technique in general: Calcium assays in cells follow changes in intracellular calcium, usually with a dye or a luminescent sensor.

Each structure is given as a SMILES string.

Usually Emax stands for the size of the effect at its maximum, as opposed to the concentration needed. The EC50 is the concentration that produces a half-maximal response.

For `COc1ccccc1-c1cnc2c(c1)CN(c1nn3c(=O)cc(C)nc3c(C)c1C)CC2` [Compound 1-250, 7-(3-(2-methoxyphenyl)-7,8-dihydro-1,6-naphthyridin-6(5H)-yl)-2,8,9-trimethyl-4H-pyrimido[1,2-b]pyridazin-4-one], the Emax at 30 µM stood at 79% and the EC50 came out at 1010 nM.
Turning to `Cc1cc2ncc(Cl)c(=O)n2nc1N1CCc2ncc(C3CC3)cc2C1` [Compound 1-9, 3-chloro-7-(3-cyclopropyl-7,8-dihydro-1,6-naphthyridin-6(5H)-yl)-8-methyl-4H-pyrimido[1,2-b]pyridazin-4-one], the Emax at 30 µM amounted to 75% and the EC50 came to 25 nM.
With `COCc1cc(=O)n2nc(N3CCc4ncc(-c5ccccc5OC(F)(F)F)cc4C3)c(C)cc2n1` [Compound 1-363, 2-(methoxymethyl)-8-methyl-7-(3-(2-(trifluoromethoxy)phenyl)-7,8-dihydro-1,6-naphthyridin-6(5H)-yl)-4H-pyrimido[1,2-b] pyridazin-4-one], the Emax at 30 µM was determined as 65% and the EC50 worked out at 3060 nM.
For `Cc1cc(=O)n2nc(N3CCc4ncc(-c5cnn(CCN6CCOCC6)c5)cc4C3)c(C)c(C)c2n1` [Compound 1-178, 2,8,9-trimethyl-7-(3-(1-(2-morpholinoethyl)-1H-pyrazol-4-yl)-7,8-dihydro-1,6-naphthyridin-6(5H)-yl)-4H-pyrimido[1,2-b]pyridazin-4-one], in that order: 74% and 2510 nM.
In the case of `Cc1c(N2CCc3ncc(-c4cnn(C)c4C)cc3C2)nn2c(=O)ccnc2c1C` [Compound 1-338, 7-(3-(1,5-dimethyl-1H-pyrazol-4-yl)-7,8-dihydro-1,6-naphthyridin-6(5H)-yl)-8,9-dimethyl-4H-pyrimido[1,2-b]pyridazin-4-one], the Emax at 30 µM stood at 88% and the EC50 came out at 131 nM.
The matching figures for `CCN(CC)c1cnc2c(c1)CN(c1nn3c(=O)ccnc3cc1C)CC2` [Compound 2-92, 7-(3-(diethylamino)-7,8-dihydro-1,6-naphthyridin-6(5H)-yl)-8-methyl-4H-pyrimido[1,2-b]pyridazin-4-one]: 70% and 863 nM.
For the molecule `Cc1cc2nc(C)c(F)c(=O)n2nc1N1CCc2ncc(Nc3ccncc3F)cc2C1` [Compound 2-156, 3-fluoro-7-(3-((3-fluoropyridin-4-yl)amino)-7,8-dihydro-1,6-naphthyridin-6(5H)-yl)-2,8-dimethyl-4H-pyrimido[1,2-b]pyridazin-4-one], the Emax at 30 µM amounted to 97% and the EC50 worked out at 64 nM.
The matching figures for `Cc1cc2nccc(=O)n2nc1N1CCc2ncc(-c3cc(F)cc(F)c3C)cc2C1` [Compound 1-447, 7-(3-(3,5-difluoro-2-methylphenyl)-7,8-dihydro-1,6-naphthyridin-6(5H)-yl)-8-methyl-4H-pyrimido [1,2-b]pyridazin-4-one]: 83% and 191 nM.
Regarding `Cc1ccc(F)cc1Nc1cnc2c(c1)CN(c1nn3c(=O)ccnc3cc1C)CC2` [Compound 2-69, 7-(3-((5-fluoro-2-methylphenyl)amino)-7,8-dihydro-1,6-naphthyridin-6(5H)-yl)-8-methyl-4H-pyrimido[1,2-b]pyridazin-4-one], the Emax at 30 µM worked out at 96% and the EC50 came out at 20 nM.
For `COCc1cc(=O)n2nc(N3CCc4ncc(-c5cnccn5)cc4C3)c(C)c(C)c2n1` [Compound 1-261, 2-(methoxymethyl)-8,9-dimethyl-7-(3-(pyrazin-2-yl)-7,8-dihydro-1,6-naphthyridin-6(5H)-yl)-4H-pyrimido[1,2-b]pyridazin-4-one], the maximal effect (Emax) at 30 µM was determined as 94% and the EC50 was determined as 20 nM.
The matching figures for `Cc1cc2nccc(=O)n2nc1N1CCc2ncc(Nc3ccc(Cl)nc3)cc2C1` [Compound 2-126, 7-(3-((6-chloropyridin-3-yl)amino)-7,8-dihydro-1,6-naphthyridin-6(5H)-yl)-8-methyl-4H-pyrimido[1,2-b]pyridazin-4-one]: 79% and 263 nM.
As to `Cc1cc2nccc(=O)n2nc1N1CCc2ncc(NC(=O)C3COC3)cc2C1` [Compound 2-109, N-(6-(8-methyl-4-oxo-4H-pyrimido[1,2-b]pyridazin-7-yl)-5,6,7,8-tetrahydro-1,6-naphthyridin-3-yl)oxetane-3-carboxamide], the Emax at 30 µM came out at 30%.
Turning to `Cc1cc2nccc(=O)n2nc1N1CCc2ncc(N3CCOC(c4ccccc4)C3)cc2C1` (stereo not drawn) [Compound 2-66, 8-methyl-7-(3-(2-phenylmorpholino)-7,8-dihydro-1,6-naphthyridin-6(5H)-yl)-4H-pyrimido[1,2-b]pyridazin-4-one], the maximal effect (Emax) at 30 µM came out at 79% and the half-maximal effective concentration (EC50) amounted to 652 nM.
Turning to `Cc1cc(F)ccc1-c1cnc2c(c1)CN(c1nn3c(=O)ccnc3cc1C)CC2` [Compound 1-443, 7-(3-(4-fluoro-2-methylphenyl)-7,8-dihydro-1,6-naphthyridin-6(5H)-yl)-8-methyl-4H-pyrimido [1,2-b]pyridazin-4-one], the Emax at 30 µM came out at 99% and the EC50 came to 210 nM.
For `Cc1ccc(-c2cnc3c(c2)CN(c2nn4c(=O)c(Cl)cnc4cc2C)CC3)cn1` [Compound 1-14, 3-chloro-8-methyl-7-(3-(6-methylpyridin-3-yl)-7,8-dihydro-1,6-naphthyridin-6(5H)-yl)-4H-pyrimido[1,2-b]pyridazin-4-one], in that order: 77% and 69 nM.
For `Cc1cc(=O)n2nc(N3CCc4ncc(-c5ccccc5C5CC5)cc4C3)c(C)cc2n1` [Compound 1-231, 7-(3-(2-cyclopropylphenyl)-7,8-dihydro-1,6-naphthyridin-6(5H)-yl)-2,8-dimethyl-4H-pyrimido[1,2-b]pyridazin-4-one], in that order: 56% and 859 nM.
As to `Cc1c(N2CCc3ncc(-c4cnccc4C(F)(F)F)cc3C2)nn2c(=O)cc(C(F)F)nc2c1C` [Compound 1-189, 2-(difluoromethyl)-8,9-dimethyl-7-(3-(4-(trifluoromethyl)pyridin-3-yl)-7,8-dihydro-1,6-naphthyridin-6(5H)-yl)-4H-pyrimido[1,2-b]pyridazin-4-one], the Emax at 30 µM came out at 48% and the EC50 amounted to 515 nM.
As to `Cc1cc2nc(C(=O)N3CCC(c4cccnc4)C3)cc(=O)n2nc1N1CCc2ncc(C(F)(F)F)cc2C1` (stereo not drawn) [Compound 1-43, 8-methyl-2-(3-(pyridin-3-yl)pyrrolidine-1-carbonyl)-7-(3-(trifluoromethyl)-7,8-dihydro-1,6-naphthyridin-6(5H)-yl)-4H-pyrimido[1,2-b]pyridazin-4-one], the maximal response (Emax) at 30 µM is 92% and the EC50 came out at 612 nM.
The matching figures for `Cc1cc2n(n1)CCCN2c1cnc2c(c1)CN(c1nn3c(=O)ccnc3cc1C)CC2` [Compound 2-5, 8-methyl-7-(3-(2-methyl-6,7-dihydropyrazolo[1,5-a]pyrimidin-4(5H)-yl)-7,8-dihydro-1,6-naphthyridin-6(5H)-yl)-4H-pyrimido[1,2-b]pyridazin-4-one]: 97% and 60 nM.
For `Cc1nn(C)c(C)c1-c1cnc2c(c1)CN(c1nn3c(=O)cc(C(F)F)nc3c(C)c1C)CC2` [Compound 1-310, 2-(difluoromethyl)-8,9-dimethyl-7-(3-(1,3,5-trimethyl-1H-pyrazol-4-yl)-7,8-dihydro-1,6-naphthyridin-6(5H)-yl)-4H-pyrimido[1,2-b]pyridazin-4-one], in that order: 86% and 136 nM.
On to `COCc1c(C)c(N2CCc3ncc(C(F)(F)F)cc3C2)nn2c(=O)ccnc12` [Compound 1-276, 9-(methoxymethyl)-8-methyl-7-(3-(trifluoromethyl)-7,8-dihydro-1,6-naphthyridin-6(5H)-yl)-4H-pyrimido[1,2-b]pyridazin-4-one], for which the Emax at 30 µM turned out to be 66%.
With `Cc1cc2nccc(=O)n2nc1N1CCc2ncc(-c3cnn(C)c3C(F)F)cc2C1` [Compound 1-413, 7-(3-(5-(difluoromethyl)-1-methyl-1H-pyrazol-4-yl)-7,8-dihydro-1,6-naphthyridin-6(5H)-yl)-8-methyl-4H-pyrimido[1,2-b]pyridazin-4-one], the maximal effect (Emax) at 30 µM stood at 89% and the EC50 was found to be 208 nM.
On to `Cc1cc(=O)n2nc(N3CCc4ncc(-c5cccnc5)cc4C3)c(C)c(C)c2n1` [Compound 1-129, 2,8,9-trimethyl-7-(3-(pyridin-3-yl)-7,8-dihydro-1,6-naphthyridin-6(5H)-yl)-4H-pyrimido[1,2-b]pyridazin-4-one], for which the Emax at 30 µM stood at 91% and the EC50 came out at 1620 nM.
The matching figures for `Cc1c(N2CCc3ncc(C4CCCCC4)cc3C2)nn2c(=O)ccnc2c1C` [Compound 1-430, 7-(3-cyclohexyl-7,8-dihydro-1,6-naphthyridin-6(5H)-yl)-8,9-dimethyl-4H-pyrimido[1,2-b] pyridazin-4-one]: 75% and 95 nM.
`Cc1cc(=O)n2nc(N3CCc4ncc(-c5cccnc5C)cc4C3)c(C)c(C)c2n1` [Compound 1-122, 2,8,9-trimethyl-7-(3-(2-methylpyridin-3-yl)-7,8-dihydro-1,6-naphthyridin-6(5H)-yl)-4H-pyrimido[1,2-b]pyridazin-4-one]: the Emax at 30 µM amounted to 93% and the EC50 was 2930 nM.

The record behind these values is patent US20250101041A1, “POSITIVE ALLOSTERIC MODULATORS OF THE MUSCARINIC ACETYLCHOLINE RECEPTOR M4” (Vanderbilt University, priority 2022, published 2025).
